Consider one compound from patent publication US20060025419A1, “Imidazoquinoxaline compound for the treatment of melanoma” (priority 2004, published 2006).

The test system of test [1] is Normal human epidermal melanocytes (NHEM). As to the kind of experiment: Growth of cultured cells, hemocytometer counting. It counts as cell-based. From the text:
A super-repressor form of human IκBα (S32, 36A) resistant to degradation and mutant IKKβ […]) was kindly provided by Javier […] Cancer Center, University of California-San Diego School of Medicine). Antibodies to IKKα (H-744), IKKβ (H-470), Bcl-2, Bax and AIF were purchased from Santa Cruz Biotechnology, Inc. (Santa Cruz, Calif.). […] N-acetyl-L-cysteine (NAC) and Tiron were from Sigma-Aldrich (St. Louis, Mo.). Normal human epidermal melanocytes (NHEM) were provided by the Skin Disease Research Center in Vanderbilt University School of Medicine. NHEM were cultured in 154 medium with 1× human melanocyte growth supplement (Cascade Biologicals, Inc.). The melanoma cell lines, Sk Mel5, A375 and Hs294T, originally established from human metastatic melanoma, were purchased from American Type Culture Collection and cultured in DMEM: Ham's F-12 medium containing 10% FBS, 2 mM of L-glutamine, 100 μM of MEM Non-Essential Amino Acids (Life Technologies, Inc.), and 1 mM of sodium pyruvate (Sigma Chemical Co.). Aberrant activation of NF-κB has been associated with carcinogenesis, and constitutively high IKK activity has been detected in many tumor types, including human melanoma (Yang & Richmond, 2001; […] et al., 2003; […] et al., 2003). IKK is a major regulator of the NF-κB pathway and therefore represents an attractive therapeutic target in advanced cancers. […] After three days of culture, the cell numbers were determined by hemocytometer counting (Table 1).

The next test deals with melanoma tumor. As to the kind of experiment: H&E and TUNEL staining of melanoma tumor sections. It counts as in vivo, mice. The procedure: FIGS. 4A-4H. […] Paraffin-embedded tumor tissues were subjected to H&E staining (FIGS. 4C & D) and DeadEnd Fluorometric TUNEL-assay for detection of apoptosis (FIGS. 4E & F). The TUNEL-positive cells are visualized in green fluorescence in a red (Propidium Iodide) background by fluorescence microscopy. […] After 36 h incubation, cells were collected and fixed with 1% formaldehyde and 70% ice-cold ethanol. The apoptotic cells were examined using TUNEL-assay and analyzed by flow cytometry through measuring fluorescein-12-dUTP at 520 nm. The apoptotic rate is indicated in each box. Data shown are represented one of three independent experiments. […] Cells were fixed and stained with Propidium iodide. Cell fluorescence was measured by flow cytometry and the data were analyzed using DNA content histogram deconvolution software (Multicycle from Phoenix Flow Systems). […]
In melanoma, constitutive activation of NF-κB confers tumor survival capacity and escape from apoptosis (Richmond, 2002). […] Apoptotic cells were labeled using DeadEnd Fluorometric TUNEL reagent and analyzed by flow cytometry. […] Thirty-six hours after transfection, cells were collected, labeled with TUNEL reagent and analyzed by flow cytometry. […] Induction of DNA fragmentation, a hallmark of apoptosis, was evaluated by staining DNA with ethidium bromide followed by quantization by FACS analysis.

A further test concerns SK-Mel-5 cells. As to the kind of experiment: Mitochondrial membrane potential (Δψm), DiOC6 and FACS. As to conditions: SK-Mel-5, 10 μM. It counts as cell-based, human. The procedure:
FIGS. 5A-5E. […] (FIG. 5A) Redistribution of Bcl-2 and Bax in mitochondria. […] Subcellular mitochondria and cytoplasm were prepared and subjected to Western blot analysis for Bcl-2 and Bax. (FIG. 5B) Dissipation of mitochondrial Δψm. […] After exposure, mitochondria were isolated and incubated with 80 μM 3,3′dihexyloxacarbocyanine iodide (DiOC6) at 37° C. for 15 min. Δψm was determined by FACS analysis using 484/530 nm filters within 10 min while gating the forward and sideward scatters on intact mitochondria (FIG. 5C). (FIG. 5D) Release of cytochrome-C and AIF. […] Subcellular extracts were prepared and subjected to Western blot analysis for cytochrome-C and AIF. […] The supernatant was assessed for cytochrome-c release. […]
For quantification of cell death, DNA content was analyzed on a FACScan (Becton Dickinson, San Jose, Calif.). […] Cell fluorescence was measured by flow cytometry with 488 nm excitation and 620 nm emission filters and data were analyzed using DNA content histogram deconvolution software (Multicycle, Phoenix Flow Systems). […] ROS were determined by FACS analysis with 488 nm excitation and 585 emission filters.
Mitochondria play a crucial role in the regulation of programmed cell death (Zamzami et al., 1995a; 1995b; 1996a; 1996b). […] The change in mitochondrial membrane potential (Δψm) was determined by FACS analysis after the mitochondria were stained with DiOC6.

The next test relates to NF-κB/p65. As to the kind of experiment: Time-lapse microscopy of GFP-p65 translocation. It counts as cell-based, human. As to conditions: SK-Mel-5, 10 μM, 7 h observation.
A further test deals with caspase-3. As to the kind of experiment: Caspase-3 activity assay (Ac-DEVD-pNA) in cytosol extracts. It counts as cell-based, human.

Description for NF-κB/p65: SK-Mel-5 cells (2×10^5 ) were cultured in 25 cm^2 culture flasks (Corning Inc., Corning, N.Y.) and transfected with 0.5 μg of GFP-p65 expression vector DNA for 14 h. […] The expression and localization of EGFP-p65 in live cells was recorded using time-lapse video microscopy (FIGS. 3A). The cytosolic and nuclear green fluorescent density was quantified by the Openlab software program (FIGS. 3B).
To test this possibility, SK-Mel-5 cells were transfected with a GFP-p65 expression vector to monitor the nuclear translocation in living cells. […] Time-lapse video microscopy was used to follow the localization of GFP-p65 in live cells. Images were captured at one-hour intervals over a 7 h observation period. The cytosol versus nuclear green fluorescent density was quantified by the Openlab software program.

For `Cc1ccc2nc(NCCN)c3ncc(C)n3c2c1.Cl` [BMS-345541, 4(2′-aminoethyl)amino-1,8-dimethylimidazo(1,2-a)quinoxaline], the “cell number after three days of culture” value came to 4.8 ± 0.28 in test [1] (0.1 μM), 4.9 ± 0.38 in test [1] (1.0 μM) and 0.18 ± 0.04 in test [1] (10 μM). The “nuclear apoptosis in tumor sections (H&E, TUNEL)” value with melanoma tumor (25 mg/kg daily) is “obvious nuclear condensation and DNA fragment staining”. Further, the “TUNEL staining of tumor sections” value in the test on melanoma tumor (75 mg/kg) was “TUNEL staining appeared extensively over the tumor sections”. Moreover, the “loss of mitochondrial membrane potential” value in the test with SK-Mel-5 cells (24 h) is reported as 16±1.5%; in the test with SK-Mel-5 cells (48 h), 87±5.4%. For the same compound, the GFP-p65 localization result in the test with NF-κB/p65 is “consistently retained GFP-p65 in the cytoplasm”. Also, the “specific caspase-3 activity” value is reported as 1.6±0.092 pmol/min/μg protein with caspase-3 (SK-Mel-5, 10 μM BMS-345541, 36 h) and 0.44±0.035 pmol/min/μg protein with caspase-3 (SK-Mel-5, 10 μM BMS-345541 in combination with 50 μM Z-VAD-fmk, 36 h).
